This note sets out measurements from publication PMC6121902, “Conjugation with Dihydrolipoic Acid Imparts Caffeic Acid Ester Potent Inhibitory Effect on Dopa Oxidase Activity of Human Tyrosinase” (International Journal of Molecular Sciences, 2018).

Holding throughout (format): biochemical
Experiment [1] relates to T1, human tyrosinase.
T1 construct: The oxidation of L-DOPA by cell-free HBL cell extracts was monitored spectrophotometrically at 490 nm; endogenous in cells; host or cells: HBL human melanoma cells (detergent-solubilized cell extract)
Put plainly: Substrate test with HBL cell lysates and MBTH (absorbance at 490 nm). The following applies: different concentrations, over 1 h.

Experiment [2] deals with T2, tyrosinase from HBL human melanoma cells (Homo sapiens, UniProt P14679).
T2 construct: endogenous in cells; host or cells: HBL human melanoma cells (detergent-solubilized cell extract)
T2 sequence (P14679 19-529): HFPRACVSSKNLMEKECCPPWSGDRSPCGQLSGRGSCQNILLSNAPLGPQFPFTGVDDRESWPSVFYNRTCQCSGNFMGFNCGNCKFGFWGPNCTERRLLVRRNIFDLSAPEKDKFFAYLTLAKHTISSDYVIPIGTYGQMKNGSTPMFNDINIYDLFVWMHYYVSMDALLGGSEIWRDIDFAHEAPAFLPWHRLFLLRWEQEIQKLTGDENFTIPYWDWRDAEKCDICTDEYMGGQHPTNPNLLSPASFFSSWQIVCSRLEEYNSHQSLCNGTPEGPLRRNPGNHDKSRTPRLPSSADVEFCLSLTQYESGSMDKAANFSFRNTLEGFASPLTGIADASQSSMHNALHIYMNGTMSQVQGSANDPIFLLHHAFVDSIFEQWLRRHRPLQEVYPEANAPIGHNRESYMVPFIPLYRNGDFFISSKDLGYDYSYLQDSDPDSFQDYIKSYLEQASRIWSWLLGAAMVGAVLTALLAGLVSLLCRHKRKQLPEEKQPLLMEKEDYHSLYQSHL
Put plainly: DO activity of human tyrosinase in HBL cell extracts (MBTH assay, 490 nm). The conditions noted are these: for Km: read-out: Km (apparent). Here is the method:
In further experiments, the effect of LCAME and LCA was investigated on extracts from HBL human melanoma cells expressing tyrosinase, and the inhibition of DO activity was evaluated. DO activity was determined according to Winder and Harris with some minor modifications: cell extracts were incubated with 3-methyl-2-benzothiazolinone hydrazone (MBTH) and absorbance at 490 nm was measured every 10 min for 1 h.
Cells were solubilized in 1% Igepal, 1% phenylmethylsulfonyl fluoride, 50 mM phosphate buffer (pH 6.8) and centrifuged at 2000 rpm for 5 min.
DO activity determinations were performed according to Winder and Harris with minor modifications. Briefly, cell extracts (usually 50–100 µg protein/assay) were incubated with 5 mM MBTH and 2.5 mM L-DOPA in 50 mM phosphate buffer pH 6.8 in the presence of the indicated concentrations of the compound of choice in a 96-wells plate. DO activity was measured spectrophotometrically in a microplate reader every ten minutes for one hour and was expressed as the slopes calculated with the GraphPad Prism 7 software (Linear Regression, San Diego, CA, USA).
For the analysis of kinetic parameters, the assays were run as above, using different concentrations of L-DOPA (from 0.1 to 2.0 mM) and of the inhibitor (0, 10 and 25 μM) to build the Lineweaver–Burk plot.

The target of experiment [3] is mushroom tyrosinase. Put plainly: Mushroom tyrosinase TH activity inhibition (dopachrome formation at 475 nm, L-tyrosine substrate). The conditions noted are these: 10 min pre-incubation, L-tyrosine 1 mM, tyrosinase 20 U/mL, pH 6.8. Here is the method: The inhibition properties of LCAME were preliminarily investigated on mushroom tyrosinase by spectrophotometric monitoring of dopachrome formation, a method which is routinely used for evaluation of the activity of potential tyrosinase inhibitors. L-DOPA was used as the substrate to test DO activity while L-tyrosine was used to test TH activity. LCAME was incubated in 50 mM phosphate buffer in the presence of mushroom tyrosinase (20 U/mL) at room temperature. After 10 min, L-DOPA or L-tyrosine (1 mM final concentration) were added and the absorbance at 475 nm was measured at different times over 10 min. For comparative purposes the effects of CAME were evaluated as well. Stock methanolic solutions of LCAME or CAME, ranging in concentration from 0.02 to 20 mM concentration were prepared dissolving a proper amount of the compound of interest in methanol. 100 μL of these solutions were added to 2 mL of 50 mM phosphate buffer at pH 6.8 (final concentrations range: 0.001–1 mM), in the presence or in the absence of 20 U/mL mushroom tyrosinase. […] Spectrophotometric analysis was performed by measuring the absorbance at 475 nm for 10 min at 2 min intervals. […] In separate experiments, the assay was run as above with LCAME or CAME at 100 μM, in the presence or absence of L-DOPA, and after 10 min the mixture was analyzed by HPLC.

The test system of experiment [4] is mushroom tyrosinase. Put plainly: Mushroom tyrosinase DO activity inhibition (dopachrome formation at 475 nm, L-DOPA substrate). The conditions noted are these: LCAME 0.050 μM. The protocol: The inhibition properties of LCAME were preliminarily investigated on mushroom tyrosinase by spectrophotometric monitoring of dopachrome formation, a method which is routinely used for evaluation of the activity of potential tyrosinase inhibitors. L-DOPA was used as the substrate to test DO activity while L-tyrosine was used to test TH activity. LCAME was incubated in 50 mM phosphate buffer in the presence of mushroom tyrosinase (20 U/mL) at room temperature. After 10 min, L-DOPA or L-tyrosine (1 mM final concentration) were added and the absorbance at 475 nm was measured at different times over 10 min. For comparative purposes the effects of CAME were evaluated as well. Stock methanolic solutions of LCAME or CAME, ranging in concentration from 0.02 to 20 mM concentration were prepared dissolving a proper amount of the compound of interest in methanol. 100 μL of these solutions were added to 2 mL of 50 mM phosphate buffer at pH 6.8 (final concentrations range: 0.001–1 mM), in the presence or in the absence of 20 U/mL mushroom tyrosinase. After 10 min incubation at room temperature, 20 μL of a 100 mM solution of L-DOPA or L-tyrosine in 0.6 M HCl, were added (final concentration: 1 mM). Spectrophotometric analysis was performed by measuring the absorbance at 475 nm for 10 min at 2 min intervals. In control experiments, the reaction was run in the absence of LCAME. When required, the experiment was performed as above but adding L-DOP A soon after the addition of LCAME ([…]). In separate experiments, the assay was run as above with LCAME or CAME at 100 μM, in the presence or absence of L-DOPA, and after 10 min the mixture was analyzed by HPLC.

Values joined by “and” are separate entries in the source; they are usually repeats but may differ in a detail not shown here. Identical values can stand only once. Like-named read-outs stand apart in the source and are kept apart here.

Regarding `COC(=O)/C=C/c1ccc(O)c(O)c1SCCC(S)CCCCC(=O)O` (stereo not drawn) [LCAME, 2-S-lipoylcaffeic acid methyl ester], in experiment [1], the “change in the absorbance at 490 nm (substrate of human tyrosinase)” value was “did not induce any change”. Further, the IC50 in experiment [2] (DO activity, HBL cell extracts, L-DOPA 2.5 mM, read-out: IC50 (Mean ± SEM)) was 30 µM and 30.1 µM; in experiment [3], 0.83 ± 0.09 µM. Further, the Ki in experiment [2] (DO activity, competitive model Km^app = Km (1 + [I]/Ki)) came to 34.7 ± 1.1 µM. The “type of inhibition (Lineweaver–Burk)” value in experiment [2] (L-DOPA 0.1 to 2.0 mM, LCAME 10 or 25 μM) is recorded as “competitive inhibition”. Further, the Vmax in experiment [2] ([LCAME] 10 μM) is recorded as 0.18 ± 0.02 ∆A490/min mg; in experiment [2] ([LCAME] 25 μM) it was 0.19 ± 0.03 ∆A490/min mg. The Km in experiment [2] ([LCAME] 10 μM) is 1430 ± 300 µM; in experiment [2] ([LCAME] 25 μM), 1950 ± 500 µM. For the same molecule, the “inhibitory effect on DO activity” value in experiment [2] (fixed concentration of 25 μM, HBL cell extracts) is given as “significant inhibitory effect”. For the same molecule, the “inhibition of DO activity” value amounted to 50 ± 2% in experiment [4] (10 min pre-incubation) and 42 ± 1% in experiment [4] (L-DOPA added immediately after LCAME (no pre-incubation)).
